Measured values taken from PubChem BioAssay (NCI).
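96-well plates; 48 h exposure; 5 concentrations. Endpoints by linear interpolation between flanking doses. Not reached: highest tested concentration assigned. The concentration for 50% growth inhibition is given as GI50. At the TGI there is no net growth.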

Key:
Test in all cases: NCI tumour cell line growth inhibition, 48 h
CAKI-1 renal = system: CAKI-1 renal
LOX IMVI melanoma = system: LOX IMVI melanoma
NCI-H226 lung = system: NCI-H226 lung
OVCAR-3 ovarian = system: OVCAR-3 ovarian
SNB-19 CNS = system: SNB-19 CNS
U251 CNS = system: U251 CNS
COLO 205 colon = system: COLO 205 colon
PC-3 prostate = system: PC-3 prostate
SK-MEL-5 melanoma = system: SK-MEL-5 melanoma
A498 renal = system: A498 renal

Structure (SMILES) | TGI (CAKI-1 renal) | TGI (LOX IMVI melanoma) | TGI (NCI-H226 lung) | TGI (OVCAR-3 ovarian) | TGI (SNB-19 CNS) | TGI (U251 CNS) | TGI (COLO 205 colon) | TGI (PC-3 prostate) | TGI (SK-MEL-5 melanoma) | GI50 (CAKI-1 renal) | GI50 (COLO 205 colon) | GI50 (NCI-H226 lung) | GI50 (OVCAR-3 ovarian) | GI50 (PC-3 prostate) | GI50 (SK-MEL-5 melanoma) | GI50 (SNB-19 CNS) | GI50 (U251 CNS) | TGI (A498 renal)
N#CCc1nnc(N)o1 | > 100 µM | > 100 µM | > 100 µM | > 100 µM | > 100 µM | > 100 µM | – | – | – | – | – | – | – | – | – | – | – | –
CN1C(=O)C2(c3ccccc31)C1CC3C(CO1)C1C2C3(CO)CN1C#N (stereo unspecified) | > 100 µM | > 100 µM | > 100 µM | > 100 µM | > 100 µM | > 100 µM | > 100 µM | > 100 µM | > 100 µM | – | – | – | – | – | – | – | – | –
O=C1CC(N2C(=O)/C(=C/C(Cl)=C\c3ccc([N+](=O)[O-])cc3)SC2=S)C(=O)N1c1ccc(O)cc1 (stereo unspecified) | 2.42 µM | – | 6.82 µM | 1.96 µM | 3.47 µM | 2.21 µM | 5.04 µM | 2.87 µM | 3.66 µM | 1.15 µM | 1.83 µM | 2.41 µM | 0.604 µM | 0.906 µM | 1.92 µM | 1.34 µM | 0.597 µM | –
COc1cccc(C2SCc3nc4ccccc4n32)c1 (stereo unspecified) | > 100 µM | > 100 µM | > 100 µM | > 100 µM | > 100 µM | > 100 µM | > 100 µM | – | 65.7 µM | – | – | – | – | – | – | – | – | > 100 µM
COC(=O)C1[C@H](c2ccc3c(c2)OCO3)OC(=O)[C@]1(C(=O)OC)C(=O)c1ccc(OC)c(OC)c1 (stereo partly specified) | > 100 µM | 36.1 µM | > 100 µM | > 100 µM | – | > 100 µM | > 100 µM | – | > 100 µM | – | – | – | – | – | – | – | – | > 100 µM
c1ccc2c(CNCCCCCCCCNCc3cccc4ccccc34)cccc2c1 | 5.01 µM | 2.52 µM | 24.5 µM | 22.5 µM | – | 3.13 µM | 3.43 µM | – | 3.32 µM | – | – | – | – | – | – | – | – | 28.4 µM
